Series [1] can be described thus: Dissociation constant (pKa) and extent of ionization. Format: physicochemical. The source says: Conversion of the ionized form to the un-ionized form for the 5-HT agonist is related to pH according to the formula: pH=pKa+Log10 (un-ionized concentration/ionized concentration). When the pH is the same as the pKa, equimolar concentrations of the un-ionized form and ionized form exist. […] As noted above, the un-ionized form is lipophilic and, therefore, more capable of passing through mucous membranes such as the oral mucosa than the ionized form, which is lipophobic in nature. Accordingly, increasing the pH of the saliva favors conversion of the ionized form into the un-ionized form for basic compounds such as the 5-HT agonists described herein, and the final pH can be determined by making use of the above formula. […] The final pH values of these solutions were adjusted using freshly prepared 0.01 M sodium bicarbonate/sodium carbonate buffer. Permeation was measured by determining the concentration of sumatriptan in the acceptor cell, and is expressed as Pe (effective permeability in centimeters per second).

A short description of series [2]: Sumatriptan membrane assay (dodecane membrane between donor and acceptor cell). Format: in vitro ADME. Particulars: pH 9.0 to 10.0. From the text: Topics Med. Chem., 1:277-351 (2001). This assay uses a lipid-coated membrane to predict lipid mucosal membrane penetration. The membrane apparatus consists of a dodecane membrane sandwiched between a donor and acceptor cell. The lipid-coated membrane is less porous then the mucous membrane of the oral cavity. Thus, the enhancement seen in the membrane assay is very likely to be magnified in vivo. […] The final pH values of these solutions were adjusted using freshly prepared 0.01 M sodium bicarbonate/sodium carbonate buffer. Permeation was measured by determining the concentration of sumatriptan in the acceptor cell, and is expressed as Pe (effective permeability in centimeters per second).

The source of these data is US20070059254A1, “Compositions for delivering 5-ht agonists across the oral mucosa and methods of use thereof” (TRANSORAL PHARMACEUTICALS, INC., priority 2003, published 2007).

As for `CNS(=O)(=O)Cc1ccc2[nH]cc(CCN(C)C)c2c1` [sumatriptan], the un-ionized fraction in series [1] (at pH 10.5) is reported as 90%; in series [1] (at pH 11.5), 100%. Moreover, the “change of effective permeability with pH” value in series [2] is recorded as “increased with pH”.
